For 36 molecules, Ki results are on record in patent publication US8802673B2, “Heterocyclic amine derivatives” (Hoffmann-La Roche Inc, priority 2011, dated 2014).

For one assay, the target named is mouse TAAR1 (Mus musculus (Mouse), UniProt Q923Y8). In words: Radioligand binding assay on mouse TAAR1. Particulars: mouse TAAR1 (first value of the cell), HEK-293 membranes; read-out: Ki (μM) mouse/rat. The procedure, abridged:
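Membranes from HEK293 cells stably expressing mouse TAAR1, Kd of radioligand determined per batch by saturation. Compounds tested 10 pM to 10 μM in duplicate, incubated 1 h at 4 °C, then filtration over PEI-soaked GF/C filters and scintillation counting.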

A further assay addresses rat TAAR1 (Rattus norvegicus (Rat), UniProt Q923Y9). Put plainly: Radioligand binding assay on rat TAAR1. Particulars: rat TAAR1 (second value of the cell), HEK-293 membranes; read-out: Ki (μM) mouse/rat. The procedure, abridged: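 Membranes from HEK293 cells stably expressing rat TAAR1 were used, with radioligand Kd determined by saturation for each batch. Compounds (10 pM to 10 μM, in duplicate) were incubated for 1 h at 4 °C. Bound radioactivity was collected by filtration onto PEI-soaked GF/C filters and counted by scintillation.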

Molecules are shown by their SMILES.

mouse TAAR1, sequence (Q923Y8 whole entry): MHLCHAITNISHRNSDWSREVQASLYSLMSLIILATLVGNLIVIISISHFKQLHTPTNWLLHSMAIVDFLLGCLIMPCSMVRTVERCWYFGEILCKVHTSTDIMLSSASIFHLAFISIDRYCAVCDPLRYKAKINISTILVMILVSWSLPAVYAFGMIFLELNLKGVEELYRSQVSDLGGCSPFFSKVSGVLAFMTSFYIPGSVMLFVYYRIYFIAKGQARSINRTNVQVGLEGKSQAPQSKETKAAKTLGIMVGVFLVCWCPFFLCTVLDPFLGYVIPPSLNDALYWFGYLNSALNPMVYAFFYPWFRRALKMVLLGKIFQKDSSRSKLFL
rat TAAR1, sequence (Q923Y9 whole entry): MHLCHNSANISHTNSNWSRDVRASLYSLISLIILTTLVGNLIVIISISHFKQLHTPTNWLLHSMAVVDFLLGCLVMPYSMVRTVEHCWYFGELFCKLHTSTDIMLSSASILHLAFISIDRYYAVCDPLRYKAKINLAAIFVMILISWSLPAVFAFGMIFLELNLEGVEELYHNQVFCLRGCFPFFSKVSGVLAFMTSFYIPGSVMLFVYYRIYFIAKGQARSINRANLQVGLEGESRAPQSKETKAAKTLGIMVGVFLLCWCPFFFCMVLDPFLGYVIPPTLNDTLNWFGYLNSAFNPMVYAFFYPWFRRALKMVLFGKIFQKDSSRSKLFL

In the case of `CNC(=O)c1cnc(Nc2ccc([C@H]3CNCCO3)cc2)nc1` [Example 158, 2-((S)-4-Morpholin-2-yl-phenylamino)-pyrimidine-5-carboxylic acid methylamide], the Ki was 1.02 µM at mouse TAAR1 and 1.85 µM on rat TAAR1.

Regarding `CNC(=O)c1cnc(Nc2ccc([C@@H]3CNCCO3)cc2)nc1` [Example 159, 2-((R)-4-Morpholin-2-yl-phenylamino)-pyrimidine-5-carboxylic acid methylamide], the Ki at mouse TAAR1 was determined as 1.34 µM; on rat TAAR1, 1.76 µM.

For the molecule `Cc1ccc(Nc2ccc([C@H]3CNCCO3)cc2)nn1` [Example 160, (6-Methyl-pyridazin-3-yl)-((S)-4-morpholin-2-yl-phenyl)-amine], the Ki was found to be 0.0061 µM at mouse TAAR1 and 2.75 µM on rat TAAR1.

Regarding `c1ccc(Cn2ccc(Nc3ccc([C@H]4CNCCO4)cc3)n2)cc1` [Example 161, (1-Benzyl-1H-pyrazol-3-yl)-((S)-4-morpholin-2-yl-phenyl)-amine], the Ki at mouse TAAR1 came to 0.0016 µM; on rat TAAR1, 0.223 µM.

`c1ccc(Cn2ccc(Nc3ccc([C@@H]4CNCCO4)cc3)n2)cc1` [Example 162, (1-Benzyl-1H-pyrazol-3-yl)-((R)-4-morpholin-2-yl-phenyl)-amine]: the Ki worked out at 0.002 µM on mouse TAAR1 and 0.127 µM on rat TAAR1.

As for `c1ccc(-n2ccc(Nc3ccc([C@H]4CNCCO4)cc3)n2)cc1` [Example 163, ((S)-4-Morpholin-2-yl-phenyl)-(1-phenyl-1H-pyrazol-3-yl)-amine], the Ki was 0.0026 µM at mouse TAAR1 and 0.0332 µM on rat TAAR1.

`c1ccc(-n2ccc(Nc3ccc([C@@H]4CNCCO4)cc3)n2)cc1` [Example 164, ((R)-4-Morpholin-2-yl-phenyl)-(1-phenyl-1H-pyrazol-3-yl)-amine]: the figures for the Ki at mouse TAAR1 and on rat TAAR1 were 0.0006 µM and 0.025 µM, respectively.

For `c1cc([C@H]2CNCCO2)ccc1Nc1ccc(C2COC2)cn1` [Example 165, ((S)-4-Morpholin-2-yl-phenyl)-(5-oxetan-3-yl-pyridin-2-yl)-amine], the Ki at mouse TAAR1 is 0.011 µM; on rat TAAR1, 0.34 µM.

As for `Cc1cc([C@@H]2CNCCO2)ccc1Nc1ncc(C(F)(F)F)cn1` [Example 166, ((R)-2-Methyl-4-morpholin-2-yl-phenyl)-(5-trifluoromethyl-pyrimidin-2-yl)-amine], the Ki turned out to be 0.0301 µM on mouse TAAR1 and 0.159 µM on rat TAAR1.

Consider `Cc1cc([C@H]2CNCCO2)ccc1Nc1ncc(C(F)(F)F)cn1` [Example 167, ((S)-2-Methyl-4-morpholin-2-yl-phenyl)-(5-trifluoromethyl-pyrimidin-2-yl)-amine], for which the Ki turned out to be 0.112 µM at mouse TAAR1 and 1.35 µM at rat TAAR1.

As for `FC(F)(F)c1cnc(Nc2ccc([C@@H]3CNCCO3)cc2Cl)nc1` [Example 168, ((R)-2-Chloro-4-morpholin-2-yl-phenyl)-(5-trifluoromethyl-pyrimidin-2-yl)-amine], the Ki on mouse TAAR1 is 0.0077 µM; at rat TAAR1, 0.0065 µM.

For `FC(F)(F)c1cnc(Nc2ccc([C@H]3CNCCO3)cc2Cl)nc1` [Example 169, ((S)-2-Chloro-4-morpholin-2-yl-phenyl)-(5-trifluoromethyl-pyrimidin-2-yl)-amine], the Ki at mouse TAAR1 was determined as 0.0243 µM; on rat TAAR1, 0.0397 µM.

On to `FC(F)(F)COc1ccnc(Nc2ccc([C@@H]3CNCCO3)cc2)n1` [Example 172, ((R)-4-Morpholin-2-yl-phenyl)-[4-(2,2,2-trifluoro-ethoxy)-pyrimidin-2-yl]-amine], for which the Ki came out at 0.0035 µM at mouse TAAR1 and 0.0162 µM at rat TAAR1.

On to `FC(F)(F)c1ccnc(Nc2ccc([C@@H]3CNCCO3)cc2)n1` [Example 173, (R)—N-(4-(Morpholin-2-yl)phenyl)-4-(trifluoromethyl)pyrimidin-2-amine], for which the Ki on mouse TAAR1 was 0.0044 µM; on rat TAAR1, 0.0625 µM.

As for `FC(F)Oc1cnc(Oc2cnc(Nc3ccc([C@@H]4CNCCO4)cc3)nc2)nc1` [Example 174, (R)-5-(5-(Difluoromethoxy)pyrimidin-2-yloxy)-N-(4-(morpholin-2-yl)phenyl)pyrimidin-2-amine], the Ki at mouse TAAR1 amounted to 0.0088 µM; at rat TAAR1 it was 0.0628 µM.

On to `FC(F)Oc1cnc(Oc2cnc(Nc3ccc([C@@H]4CNCCO4)cc3Cl)nc2)nc1` [Example 175, (R)—N-(2-Chloro-4-(morpholin-2-yl)phenyl)-5-(5-(difluoromethoxy)pyrimidin-2-yloxy)pyrimidin-2-amine], for which the Ki came out at 0.006 µM on mouse TAAR1 and 0.0066 µM at rat TAAR1.

As for `c1cnc(Nc2ccc([C@@H]3CNCCO3)cc2)nc1` [Example 176, (R)—N-(4-(Morpholin-2-yl)phenyl)pyrimidin-2-amine], the Ki at mouse TAAR1 is 0.152 µM; at rat TAAR1, > 10 µM.

As to `c1ccc2nc(Nc3ccc([C@@H]4CNCCO4)cc3)ncc2c1` [Example 177, ((R)-4-Morpholin-2-yl-phenyl)-quinazolin-2-yl-amine], the Ki came to 0.0028 µM on mouse TAAR1 and 0.0299 µM on rat TAAR1.

Take `Cc1cc(C(F)(F)F)nc(Nc2ccc([C@@H]3CNCCO3)cc2)n1` [Example 178, (4-Methyl-6-trifluoromethyl-pyrimidin-2-yl)-((R)-4-morpholin-2-yl-phenyl)-amine]: the Ki was determined as 0.0043 µM on mouse TAAR1 and 0.0298 µM on rat TAAR1.

As to `FC(F)Oc1cnc(Nc2ccc([C@@H]3CNCCO3)cc2)nc1` [Example 179, (R)-5-(Difluoromethoxy)-N-(4-(morpholin-2-yl)phenyl)pyrimidin-2-amine], the Ki on mouse TAAR1 amounted to 0.0047 µM; on rat TAAR1 it was 0.0517 µM.

As for `COc1cc(Cl)nc(Nc2ccc([C@@H]3CNCCO3)cc2)n1` [Example 180, (4-Chloro-6-methoxy-pyrimidin-2-yl)-((R)-4-morpholin-2-yl-phenyl)-amine], the Ki at mouse TAAR1 was 0.0058 µM; on rat TAAR1, 0.033 µM.

In the case of `N#Cc1ccnc(Nc2ccc([C@@H]3CNCCO3)cc2)n1` [Example 181, 2-((R)-4-Morpholin-2-yl-phenylamino)-pyrimidine-4-carbonitrile], the results for the Ki on mouse TAAR1 and on rat TAAR1 were 0.0084 µM and 0.398 µM, respectively.

`Cc1cc(C)nc(Nc2ccc([C@@H]3CNCCO3)cc2)n1` [Example 182, (4,6-Dimethyl-pyrimidin-2-yl)-((R)-4-morpholin-2-yl-phenyl)-amine]: the Ki on mouse TAAR1 worked out at 0.0144 µM; on rat TAAR1 it was 0.447 µM.

For the molecule `COc1cc(OC)nc(Nc2ccc([C@@H]3CNCCO3)cc2)n1` [Example 183, (4,6-Dimethoxy-pyrimidin-2-yl)-((R)-4-morpholin-2-yl-phenyl)-amine], the Ki on mouse TAAR1 is 0.0094 µM; on rat TAAR1 it was 0.174 µM.

With `FC(F)(F)c1cnc(Nc2ccc([C@@H]3CNCCO3)cc2)c(Cl)c1` [Example 185, (R)-3-Chloro-N-(4-(morpholin-2-yl)phenyl)-5-(trifluoromethyl)pyridin-2-amine], the Ki on mouse TAAR1 came out at 0.0549 µM; at rat TAAR1, 0.0888 µM.

`Clc1ncc(Cl)c(Nc2ccc([C@H]3CNCCO3)cc2)n1` [Example 186, (S)-2,5-Dichloro-N-(4-(morpholin-2-yl)phenyl)pyrimidin-4-amine]: the Ki at mouse TAAR1 was found to be 0.138 µM; at rat TAAR1, 1.1 µM.

Regarding `FC(F)(F)COc1ccnc(Nc2ccc([C@H]3CNCCO3)cc2)n1` [Example 187, ((S)-4-Morpholin-2-yl-phenyl)-[4-(2,2,2-trifluoro-ethoxy)-pyrimidin-2-yl]-amine], the Ki at mouse TAAR1 is 0.0021 µM; at rat TAAR1, 0.01 µM.

For `c1cc(C2CC2)nc(Nc2ccc([C@@H]3CNCCO3)cc2)n1` [Example 189, (4-Cyclopropyl-pyrimidin-2-yl)-((R)-4-morpholin-2-yl-phenyl)-amine], the Ki at mouse TAAR1 came out at 0.109 µM; on rat TAAR1, 0.0605 µM.

On to `Fc1cnc(Nc2ccc([C@@H]3CNCCO3)cc2)nc1C1CC1` [Example 190, (4-Cyclopropyl-5-fluoro-pyrimidin-2-yl)-((R)-4-morpholin-2-yl-phenyl)-amine], for which the Ki is 0.0031 µM on mouse TAAR1 and 0.0422 µM at rat TAAR1.

With `FS(F)(F)(F)(F)c1ccc(Nc2ccc([C@@H]3CNCCO3)cc2)cc1` [Example 191, (4-Pentalluorosulfanyl-phenyl)-((R)-4-morpholin-2-yl-phenyl)-amine], the Ki came out at 0.001 µM at mouse TAAR1 and 0.0032 µM on rat TAAR1.

In the case of `Fc1cc(Nc2ncc(C3CC3)cn2)ccc1[C@@H]1CNCCO1` [Example 192, (R)-5-Cyclopropyl-N-(3-fluoro-4-(morpholin-2-yl)phenyl)pyrimidin-2-amine], the Ki is 0.0025 µM on mouse TAAR1 and 0.0026 µM at rat TAAR1.

Turning to `Clc1cc(Nc2ncc(C3CC3)cn2)ccc1[C@H]1CNCCO1` [Example 193, ((S)-3-Chloro-4-morpholin-2-yl-phenyl)-(5-cyclopropyl-pyrimidin-2-yl)-amine], the Ki on mouse TAAR1 was 0.0038 µM; on rat TAAR1, 0.0196 µM.

Regarding `Clc1cc(Nc2ncc(C3CC3)cn2)ccc1[C@@H]1CNCCO1` [Example 194, ((R)-3-Chloro-4-morpholin-2-yl-phenyl)-(5-cyclopropyl-pyrimidin-2-yl)-amine], the results for the Ki on mouse TAAR1 and on rat TAAR1 were 0.0021 µM and 0.0011 µM, respectively.

Regarding `Fc1cc(Nc2ncc(C3CC3)cn2)ccc1[C@H]1CNCCO1` [Example 195, (S)-5-Cyclopropyl-N-(3-fluoro-4-(morpholin-2-yl)phenyl)pyrimidin-2-amine], the Ki on mouse TAAR1 turned out to be 0.0017 µM; on rat TAAR1, 0.0252 µM.

As to `Fc1cc(Nc2ncc(C(F)(F)F)cn2)ccc1[C@@H]1CNCCO1` [Example 196, (R)—N-(3-Fluoro-4-(morpholin-2-yl)phenyl)-5-(trifluoromethyl)pyrimidin-2-amine], the values for the Ki on mouse TAAR1 and at rat TAAR1 were 0.0049 µM and 0.004 µM, respectively.

As to `Fc1cc(Nc2ncc(C(F)(F)F)cn2)ccc1[C@H]1CNCCO1` [Example 197, (S)—N-(3-Fluoro-4-(morpholin-2-yl)phenyl)-5-(trifluoromethyl)pyrimidin-2-amine], the Ki amounted to 0.0031 µM at mouse TAAR1 and 0.0315 µM on rat TAAR1.
